Data: US20230322723A1, “COMPOUNDS FOR SUPPRESSING EGFR MUTANT CANCER AND PHARMACEUTICAL USE THEREOF” (J2H BIOTECH INC., priority 2020, published 2023)

Tests used:
[1] = system: EGFR^del19+T790M+C797S; assay: EGFR protein degradation test (Western blot) in Ba/F3 cells expressing mutant EGFR del19+T790M+C797S (DTC); type: cell-based; conditions: compounds at 0.1 μM and 1 μM, 24 hours, Western blot with EGFR antibody
Procedure: (§1) The ability of the compounds of the present invention to degrade the mutant EGFR protein was confirmed in Ba/F3 cells expressing normal EGFR, mutant EGFR^del19+T790M+C797S or mutant EGFR^L858R+T790M+C797S. A Western blot test using the EGFR antibody was performed.
(§2) Specifically, Ba/F3 cells expressing EGFR were cultured in RPMI 1640 (Gibco, NY, USA) containing 10% fetal bovine serum (FBS, Gibco, NY, USA). Cells expressing normal EGFR, mutant EGFR^del19+T790M+C797S or mutant EGFR^L858R+T790M+C797S were treated with the compounds of the present invention at concentrations of 0.1 μM and 1 μM, respectively, for 24 hours. After that, it was washed twice with phosphate buffered saline (PBS) and SDS-PAGE was performed with 30 μg of cell lysate. After the protein separated on the gel was transferred to a nitrocellulose membrane, the expression level of the EGFR protein was confirmed using an EGFR antibody (Santa Cruz biotechnology, Santacruz, CA, USA). EGFR bands separated by Western blotting were quantitatively analyzed with Fluo-S MultiImager (Bio-Rad, Hercules, CA, USA).

[2] = molecular target: T1, EGFR^L858R+T790M+C797S (Homo sapiens, UniProt P00533, C797S/L858R/T790M); assay: EGFR protein degradation test (Western blot) in Ba/F3 cells expressing mutant EGFR L858R+T790M+C797S (LTC); type: cell-based; conditions: compounds at 0.1 μM and 1 μM, 24 hours, Western blot with EGFR antibody
T1 construct: expressed in transfected cells; host or cells: Ba/F3
Procedure: as §1, §2

T1 sequence (P00533 25-1210 T790M/C797S/L858R): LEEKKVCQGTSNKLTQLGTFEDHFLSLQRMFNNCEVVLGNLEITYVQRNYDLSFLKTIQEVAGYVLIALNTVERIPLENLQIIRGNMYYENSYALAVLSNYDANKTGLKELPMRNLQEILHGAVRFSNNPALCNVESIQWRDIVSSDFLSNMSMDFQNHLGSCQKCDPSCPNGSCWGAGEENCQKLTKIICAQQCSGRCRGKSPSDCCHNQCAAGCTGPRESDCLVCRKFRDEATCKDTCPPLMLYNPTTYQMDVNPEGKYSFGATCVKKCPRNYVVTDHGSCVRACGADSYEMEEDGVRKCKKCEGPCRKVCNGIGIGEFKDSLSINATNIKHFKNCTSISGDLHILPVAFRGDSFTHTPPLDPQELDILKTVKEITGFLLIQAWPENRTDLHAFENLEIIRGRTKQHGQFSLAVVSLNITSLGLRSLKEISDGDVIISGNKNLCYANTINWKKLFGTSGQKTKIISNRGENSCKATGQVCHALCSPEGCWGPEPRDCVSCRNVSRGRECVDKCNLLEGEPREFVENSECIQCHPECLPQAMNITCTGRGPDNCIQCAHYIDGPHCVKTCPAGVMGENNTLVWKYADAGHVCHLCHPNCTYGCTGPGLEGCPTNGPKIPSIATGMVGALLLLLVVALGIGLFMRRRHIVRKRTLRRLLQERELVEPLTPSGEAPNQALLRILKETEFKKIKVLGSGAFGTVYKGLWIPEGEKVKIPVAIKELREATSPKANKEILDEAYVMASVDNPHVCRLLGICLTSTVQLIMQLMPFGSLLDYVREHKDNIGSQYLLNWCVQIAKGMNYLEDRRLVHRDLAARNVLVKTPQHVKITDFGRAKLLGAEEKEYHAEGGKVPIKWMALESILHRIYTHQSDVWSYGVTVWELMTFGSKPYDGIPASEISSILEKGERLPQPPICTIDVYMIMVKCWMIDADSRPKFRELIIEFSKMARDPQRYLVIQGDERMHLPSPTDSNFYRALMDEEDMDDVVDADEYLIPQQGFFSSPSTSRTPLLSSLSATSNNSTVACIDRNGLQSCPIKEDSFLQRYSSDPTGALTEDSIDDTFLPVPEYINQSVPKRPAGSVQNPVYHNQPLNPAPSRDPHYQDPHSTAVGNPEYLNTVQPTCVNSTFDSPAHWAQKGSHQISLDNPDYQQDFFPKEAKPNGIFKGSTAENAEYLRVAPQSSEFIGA

Structure (SMILES) | DTC (EGFR^del19+T790M+C797S) protein degradation [1] | LTC (EGFR^L858R+T790M+C797S) protein degradation [2]
COc1cc(N2CCN(CCOCCOc3cccc4c3C(=O)N(C3CCC(=O)NC3=O)C4=O)CC2)ccc1Nc1ncc(Cl)c(Nc2ccccc2N(C)S(C)(=O)=O)n1 (stereo not shown) [Compound 12, N-(2-((5-chloro-2-((4-(4-(2-(2-((2-(2,6-dioxopiperidin-3-yl)-1,3-dioxoisoindolin-4-yl)oxy)ethoxy)ethyl)piperazin-1-yl)-2-methoxyphenyl)amino)pyrimidin-4-yl)amino)phenyl)N-methylmethanesulfonamide] | − (Protein degradation < 20%) | − (Protein degradation < 20%)
COc1cc(N2CCN(CC3CCN(CC4CN(c5ccc6c(c5)C(=O)N(C5CCC(=O)NC5=O)C6=O)C4)CC3)CC2)ccc1Nc1ncc(Cl)c(Nc2ccccc2N(C)S(C)(=O)=O)n1 (stereo not shown) [Compound 61, N-(2-((5-chloro-2-((4-(4-((1-((1-(2-(2,6-dioxopiperidin-3-yl)-1,3-dioxoisoindolin-5-yl)azetidin-3-yl)methyl)piperidin-4-yl)methyl)piperazin-1-yl)-2-methoxyphenyl)amino)pyrimidin-4-yl)amino)phenyl)-N-methylmethanesulfonamide] | − (Protein degradation < 20%) | + (Protein degradation 20~80%)
COc1cc(N2CCC(N3CCN(CCOc4cccc5c4C(=O)N(C4CCC(=O)NC4=O)C5=O)CC3)CC2)ccc1Nc1ncc(Cl)c(Nc2ccccc2N(C)S(C)(=O)=O)n1 (stereo not shown) [Compound 52, N-(2-((5-chloro-2-((4-(4-(4-(2-((2-(2,6-dioxopiperidin-3-yl)-1,3-dioxoisoindolin-4-yl)oxy)ethyl)piperazin-1-yl)piperidin-1-yl)-2-methoxyphenyl)amino)pyrimidin-4-yl)amino)phenyl)-N-methylmethanesulfonamide] | + (Protein degradation 20~80%) | − (Protein degradation < 20%)
COc1cc(N2CCC(N3CCN(CCCCOc4cccc5c4C(=O)N(C4CCC(=O)NC4=O)C5=O)CC3)CC2)ccc1Nc1ncc(Cl)c(Nc2ccccc2N(C)S(C)(=O)=O)n1 (stereo not shown) [Compound 15, N-(2-((5-chloro-2-((4-(4-(4-(4-((2-(2,6-dioxopiperidin-3-yl)-1,3-dioxoisoindolin-4-yl)oxy)butyl)piperazin-1-yl)piperidin-1-yl)-2-methoxyphenyl)amino)pyrimidin-4-yl)amino)phenyl)-N-methylmethanesulfonamide] | + (Protein degradation 20~80%) | + (Protein degradation 20~80%)
COc1cc(N2CCC(N3CCN(CC#Cc4ccc5c(c4)C(=O)N(C4CCC(=O)NC4=O)C5=O)CC3)CC2)ccc1Nc1ncc(Cl)c(Nc2ccccc2N(C)S(C)(=O)=O)n1 (stereo not shown) [Compound 72, N-(2-((5-chloro-2-((4-(4-(4-(3-(2-(2,6-dioxopiperidin-3-yl)-1,3-dioxoisoindolin-5-yl)prop-2-yn-1-yl)piperazin-1-yl)piperidin-1-yl)-2-methoxyphenyl)amino)pyrimidin-4-yl)amino)phenyl)-N-methylmethanesulfonamide] | − (Protein degradation < 20%) | − (Protein degradation < 20%)
COc1cc(N2CCC(N3CCN(CCCCC(=O)N[C@H](C(=O)N4C[C@H](O)C[C@@H]4C(=O)NCc4ccc(-c5scnc5C)cc4)C(C)(C)C)CC3)CC2)ccc1Nc1ncc(Cl)c(Nc2ccccc2N(C)S(C)(=O)=O)n1 [Compound 7, (2R,4R)-1-((S)-2-(5-(4-(1-(4-((5-chloro-4-((2-(N-methylmethylsulfonamido)phenyl)amino)pyrimidin-2-yl)amino)-3-methoxyphenyl)piperidin-4-yl)piperazin-1-yl)pentanamido)-3,3-dimethylbutanoyl)-4-hydroxy-N-(4-(4-methylthiazol-5-yl)benzyl)pyrrolidin-2-carboxamide] | + (Protein degradation 20~80%) | − (Protein degradation < 20%)
COc1cc(N2CC3(CN(CCC(=O)Nc4cccc5c4C(=O)N(C4CCC(=O)NC4=O)C5=O)C3)C2)ccc1Nc1ncc(Cl)c(Nc2ccccc2N(C)S(C)(=O)=O)n1 (stereo not shown) [Compound 32, 3-(6-(4-((5-chloro-4-((2-(N-methylmethylsulfonamido)phenyl)amino)pyrimidin-2-yl)amino)-3-methoxyphenyl)-2,6-diazaspiro[3,3]heptan-2-yl)-N-(2-(2,6-dioxopiperidin-3-yl)-1,3-dioxoisoindolin-4-yl)propanamide] | − (Protein degradation < 20%) | − (Protein degradation < 20%)
COc1cc(N2CCN(CCOCCOCC(=O)N[C@H](C(=O)N3C[C@H](O)C[C@@H]3C(=O)NCc3ccc(-c4scnc4C)cc3)C(C)(C)C)CC2)ccc1Nc1ncc(Cl)c(Nc2ccccc2N(C)S(C)(=O)=O)n1 [Compound 10, (2R,4R)-1-((S)-2-(2-(2-(2-(4-(4-((5-chloro-4-((2-(N-methylmethylsulfonamido)phenyl)amino)pyrimidin-2-yl)amino)-3-methoxyphenyl)piperazin-1-yl)ethoxy)ethoxy)acetamido)-3,3-dimethylbutanoyl)-4-hydroxy-N-(4-(4-methylthiazol-5-yl)benzyl)pyrrolidin-2-carboxamide] | − (Protein degradation < 20%) | − (Protein degradation < 20%)
COc1cc(N2CCN(CC3CCN(Cc4ccc5c(c4)C(=O)N(C4CCC(=O)NC4=O)C5=O)CC3)CC2)ccc1Nc1ncc(Cl)c(Nc2ccccc2N(C)S(C)(=O)=O)n1 (stereo not shown) [Compound 41, N-(2-((5-chloro-2-((4-(4-((1-((2-(2,6-dioxopiperidin-3-yl)-1,3-dioxoisoindolin-5-yl)methyl)piperidin-4-yl)methyl)piperazin-1-yl)-2-methoxyphenyl)amino)pyrimidin-4-yl)amino)phenyl)-N-methylmethanesulfonamide] | − (Protein degradation < 20%) | − (Protein degradation < 20%)
COc1cc(N2CCN(CCOCCOCC(=O)Nc3cccc4c3C(=O)N(C3CCC(=O)NC3=O)C4=O)CC2)ccc1Nc1ncc(Cl)c(Nc2ccccc2N(C)S(C)(=O)=O)n1 (stereo not shown) [Compound 8, 2-(2-(2-(4-(4-((5-chloro-4-((2-(N-methylmethylsulfonamido)phenyl)amino)pyrimidin-2-yl)amino)-3-methoxyphenyl)piperazin-1-yl)ethoxy)ethoxy)-N-(2-(2,6-dioxopiperidin-3-yl)-1,3-dioxoisoindolin-4-yl)acetamide] | − (Protein degradation < 20%) | − (Protein degradation < 20%)
COc1cc(N2CCN(CC3CCN(CC(=O)N[C@H](C(=O)N4C[C@H](O)CC4C(=O)NCc4ccc(-c5scnc5C)cc4)C(C)C)CC3)CC2)ccc1Nc1ncc(Cl)c(Nc2ccccc2N(C)S(C)(=O)=O)n1 (stereo in doubt) [Compound 56, (2R,4R)-1-((2-(4-((4-(4-((5-chloro-4-((2-(N-methylmethylsulfonamido)phenyl)amino)pyrimidin-2-yl)amino)-3-methoxyphenyl)piperazin-1-yl)methyl)piperidin-1-yl)acetyl)-L-valyl)-4-hydroxy-N-(4-(4-methylthiazol-5-yl)benzyl)pyrrolidin-2-carboxamide] | + (Protein degradation 20~80%) | − (Protein degradation < 20%)
CN(c1ccccc1Nc1nc(Nc2ccc(N3CCN(CCOC4CN(c5ccc6c(c5)C(=O)N(C5CCC(=O)NC5=O)C6=O)C4)CC3)c(F)c2)ncc1Cl)S(C)(=O)=O (stereo not shown) [Compound 40, N-(2-((5-chloro-2-((4-(4-(2-((1-(2-(2,6-dioxopiperidin-3-yl)-1,3-dioxoisoindolin-5-yl)azetidin-3-yl)oxy)ethyl)piperazin-1-yl)-3-fluorophenyl)amino)pyrimidin-4-yl)amino)phenyl)-N-methylmethanesulfonamide] | + (Protein degradation 20~80%) | + (Protein degradation 20~80%)
COc1cc(N2CCC(CN3CCC(CNc4cccc5c4C(=O)N(C4CCC(=O)NC4=O)C5=O)CC3)CC2)ccc1Nc1ncc(Cl)c(Nc2ccccc2N(C)S(C)(=O)=O)n1 (stereo not shown) [Compound 62, N-(2-((5-chloro-2-((4-(4-((4-(((2-(2,6-dioxopiperidin-3-yl)-1,3-dioxoisoindolin-4-yl)amino)methyl)piperidin-1-yl)methyl)piperidin-1-yl)-2-methoxyphenyl)amino)pyrimidin-4-yl)amino)phenyl)-N-methylmethanesulfonamide] | + (Protein degradation 20~80%) | ++ (Protein degradation > 80%)
COc1cc(N2CCN(CC3CCN(C(=O)CNc4ccc5c(c4)C(=O)N(C4CCC(=O)NC4=O)C5=O)CC3)CC2)ccc1Nc1ncc(Cl)c(Nc2ccccc2N(C)S(C)(=O)=O)n1 (stereo not shown) [Compound 66, N-(2-((5-chloro-2-((4-(4-((1-((2-(2,6-dioxopiperidin-3-yl)-1,3-dioxoisoindolin-5-yl)glycyl)piperidin-4-yl)methyl)piperazin-1-yl)-2-methoxyphenyl)amino)pyrimidin-4-yl)amino)phenyl)-N-methylmethanesulfonamide] | ++ (Protein degradation > 80%) | ++ (Protein degradation > 80%)
